# Test results published in patent US11331302B2, “Transmucosal delivery of tocotrienol” (INVICTUS BIOTECHNOLOGY PTY LTD., priority 2012, dated 2022).
# Legend:
# [1] = target: T1, alpha-tocopherol transport protein (a-TTP) (Rattus norvegicus, UniProt P41034); conditions: alpha-tocopherol = 100%; cited from earlier work
# T1 sequence (P41034 1-278): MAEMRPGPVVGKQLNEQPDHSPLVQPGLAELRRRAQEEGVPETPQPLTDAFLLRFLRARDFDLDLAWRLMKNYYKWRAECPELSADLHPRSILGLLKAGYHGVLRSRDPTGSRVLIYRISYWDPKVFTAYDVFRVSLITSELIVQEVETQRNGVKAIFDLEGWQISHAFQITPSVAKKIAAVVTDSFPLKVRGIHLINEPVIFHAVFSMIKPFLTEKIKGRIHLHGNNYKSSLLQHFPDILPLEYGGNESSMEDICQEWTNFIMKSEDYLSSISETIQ
# [2] = Plasma tocotrienol levels after sublingual tablets; assay type: in vivo, human; conditions: 4×10 mg tablets sublingually, 2 subjects
# Protocol: A 220 mg sublingual tablet formulation was prepared containing a dose of 10 mg tocotrienol comprised of the actives: delta-tocotrienol 9 mg, gamma tocotrienol 1 mg; and the following excipients: dextrose, mannitol, marine gelatin, 1-leucine, 1-arginine, pre-gel starch, PEG-200, propylene glycol, talc, silica dioxide, magnesium stearate, carotenoids.
# A test was carried out on 2 subjects who dissolved 4×10 mg tablets sublingually.
# [3] = humans; same dose of tocotrienol preparations; cited from earlier work
# [4] = in vivo
# Protocol: FIG. 9: Appearance of blood plasma concentrations using gel and tablet sublingual formulations of a 40 mg dose of tocotrienols. Delta tocotrienol (delta-T3) and gamma tocotrienol (gamma-T3) levels were measured in plasma at time points up to 180 minutes from administration of the gel or tablet (tab) formulation.
# A test was carried out in 2 subjects who administered 40 mg tocotrienols in 2 ml of gel sublingually. Blood samples were collected from a forearm venous catheter before administration and at 15, 60, and 180 minutes after administration.
# [5] = animal study, estimated; cited from earlier work
compound,measurement,setting,value
CC(C)=CCC/C(C)=C/CC/C(C)=C/CC[C@]1(C)CCc2cc(O)c(C)c(C)c2O1 [gamma tocotrienol],relative affinity towards a-TTP,[1],9%
same,plasma level,[2]; 20 minute point,800 nM
same,plasma level,[2]; 1 h,400 nM
same,plasma level,[2]; 2 h,190 nM
same,plasma level,[2]; 3 h,70 nM
Cc1cc(O)cc2c1O[C@](C)(CCC[C@H](C)CCC[C@H](C)CCCC(C)C)CC2 [delta-tocopherol],relative affinity towards a-TTP,[1],2%
Cc1c(C)c2c(c(C)c1O)CC[C@@](C)(CCC[C@H](C)CCC[C@H](C)CCCC(C)C)O2 [alpha-tocopherol],relative affinity towards a-TTP,[1],100%
alpha-tocotrienol,relative affinity towards a-TTP,[1],12%
same,"plasma concentration, fold higher than that of gamma-tocotrienol",[3],2 fold
same,"plasma concentration, times higher than delta-tocotrienol",[3],~10 times
CC(C)=CCC/C(C)=C/CC/C(C)=C/CC[C@]1(C)CCc2cc(O)cc(C)c2O1 [delta tocotrienol],ratio of delta to gamma tocotrienol levels in plasma,[4],9:1
tocopherol,oral bioavailability,[5],36%
